Measurements reported in US20220280594A1, “APPLICATION OF POLYPEPTIDE OR DERIVATIVE THEREOF” (CHENGDU HUITAI BIOMEDICINE CO., LTD., priority 2019, published 2022).
Ends that are not written are not given here. PEG = not defined here

Tests used:
[1] = system: human lung cancer cells (A549) subcutaneous xenograft; test: lung cancer subcutaneous xenograft animal model, intravenous injection; format: in vivo, mice (BALB/c-nu/nu); details: intravenous 60 mg/kg once every other day, 20 days; for Weight of tumor (g) (mean ± SD): control 2.53 ± 0.17; for Volume of tumor (mm^3) (mean ± SD): control 3373.26 ± 581.44
Protocol: Experimental animals: 4-6 weeks old female immunodeficiency mice (BALB/c-nu/nu, Beijing Vital River Laboratory Animal Technology Co., Ltd.).
Subcutaneous xenograft animal model. The number of cells inoculated subcutaneously vin mice was about 2×10^6/200 μL. When the volume of the subcutaneous tumor was greater than 100 mm^3, the mice were randomly divided into groups and subjected to treatment. When the mass volume of the tumors in model control group reached 2000 mm^3 or the animal dies, the treatment ended. The animals were dissected, the tumors were taken out, and the weight and volume of the tumors were measured. During the period of the entire experiment, the mice were observed and the body weight was measured every other day.
The method used in the efficacy test on the lung cancer subcutaneous xenograft animal model was as described in Example 5. The lung cancer cells were the human lung cancer cells (A549), and the route of administration was intravenous injection. This example involved a total of 3 experiments to evaluate N1-N15, N16-N30, and N31-N54 respectively. The experimental procedure, route of administration, dosage and frequency of administration, and detection method were all consistent in the three experiments. The experimental groups were model control group and polypeptide or derivative thereof treatment groups (N1-N15, N16-N30, or N31-N54). The drug dosage of the N1-N54 treatment groups was 60 mg/kg, and the treatment time was 20 days.

[2] = system: human pancreatic cancer cells (PANC-1); test: transwell migration assay, PANC-1 cells; format: cell-based; details: PANC-1 transwell migration, 10 μM, 24 hours; control group 360 ± 60
Protocol: (§1) The Transwell chamber system was used in the transwell cell migration experiment. The chamber has an upper layer and a lower layer, which are separated by an artificial semipermeable membrane in the middle. Cells that have migrated through the semi-permeable membrane will attach to the lower surface of the semi-permeable membrane. The migration ability is evaluated by counting the number of cells on the lower surface of the semi-permeable membrane. The number of cells that have migrated is negatively correlated with the inhibitory effect of the drug on the migration ability of the tumor cells. Transwell migration assay was performed as follows: tumor cells were cultured in vitro, cells in logarithmic growth phase were collected, and cell suspension was prepared with fresh serum-free medium at a density of 2-3×10^5 cells/mL. Cells were inoculated, 100 μL/well cell suspension (serum-free medium) in the upper chamber and 600 μL/well complete culture medium in the lower chamber. After incubated in 37° C., 5% CO2 incubator for 4-5 hours, serum-free medium (100 μL/well) was added to the control group, and serum-free medium containing polypeptide or derivative thereof (N1-N54) was added to the upper chamber of the treatment group (100 μL/well), the final concentration of the peptide or derivative thereof in the upper chamber was 10 μM. The cells were incubated continuously for 24 hours, and then fixed with methanol and stained with crystal violet. Images were taken under a microscope and the number of migrated cells was counted with ImageJ.
This example was a transwell cell migration experiment to evaluate the inhibitory effect of the polypeptide or derivative thereof (N1-N54) on the migration ability of human pancreatic cancer cells (PANC-1). The experimental method was as described in Example 3.

[3] = system: human pancreatic cancer cells (PANC-1); test: transwell invasion assay, PANC-1 cells; format: cell-based; details: PANC-1 transwell invasion, 10 μM, 24 hours; control group 727 ± 68
From the text: (§2) The Transwell chamber system was used in the transwell cell invasion experiment. The chamber has an upper layer and a lower layer, which are separated by an artificial semipermeable membrane in the middle. The upper surface of the semipermeable membrane is coated with a layer of artificial matrigel to simulate extracellular matrix. Cells that have invaded through the matrigel and semi-permeable membrane will attach to the lower surface of the semi-permeable membrane. The invasion ability is evaluated by counting the number of cells on the lower surface of the semi-permeable membrane. The number of cells that have invaded is negatively correlated with the inhibitory effect of the drug on the invasion ability of the tumor cells. Transwell invasion assay was performed as follows: tumor cells were cultured in vitro, cells in logarithmic growth phase were collected, and cell suspension was prepared with fresh serum-free medium at a density of 2-3×10^5 cells/mL. Cells were inoculated, 100 μL/well cell suspension (serum-free medium) in the upper chamber and 600 μL/well complete culture medium in the lower chamber. After incubated in 37° C., 5% CO2 incubator for 4-5 hours, serum-free medium (100 μL/well) was added to the control group, and serum-free medium containing polypeptide or derivative thereof (N1-N54) was added to the upper chamber of the treatment group (100 μL/well), the final concentration of the peptide or derivative thereof in the upper chamber was 10 μM. The cells were incubated continuously for 24 hours, and then fixed with methanol and stained with crystal violet. Images were taken under a microscope and the number of invaded cells was counted with ImageJ.
This example was the transwell cell invasion experiment to evaluate the inhibitory effect of the polypeptide or derivative thereof (N1-N54) on the invasion ability of human pancreatic cancer cells (PANC-1). The experimental method was as described in Example 4.

[4] = system: human liver adenocarcinoma cells (SK-HEP-1); test: transwell migration assay, SK-HEP-1 cells; format: cell-based; details: SK-HEP-1 transwell migration, 10 μM, 24 hours; control group 1 782 ± 108, control group 2 768 ± 86
Protocol: as §1
This example was a transwell cell migration experiment to evaluate the inhibitory effect of the polypeptide or derivative thereof (N1-N54) on the migration ability of human liver adenocarcinoma cells (SK-HEP-1). The experimental method was as described in Example 3.

[5] = system: human liver adenocarcinoma cells (SK-HEP-1); test: transwell invasion assay, SK-HEP-1 cells; format: cell-based; details: SK-HEP-1 transwell invasion, 10 μM, 24 hours; control group 767 ± 91
From the text: as §2
This example was a transwell cell invasion experiment to evaluate the inhibitory effect of the polypeptide or derivative thereof (N1-N54) on the invasion ability of human liver adenocarcinoma cells (SK-HEP-1). The experimental method was as described in Example 4.

| Substance | Weight of tumor (g) (mean ± SD) [1] | Volume of tumor (mm^3) (mean ± SD) [1] | Number of cells (mean ± SD, P), migrated cells [2] | Number of cells (mean ± SD, P), invaded cells [3] | Number of cells (mean ± SD, P), migrated cells [4] | Number of cells (mean ± SD, P), invaded cells [5] |
| --- | --- | --- | --- | --- | --- | --- |
| N19: SEQ ID NO: 1 with deletion of positions 1-5 and 15-18 and addition of two amino acids at the carboxyl terminal (LAKENVTQDRC) | 0.81 ± 0.19 | 1235.44 ± 432.58 | 238 ± 27,* | 213 ± 20,**** | 82 ± 6,**** | 348 ± 40,*** |
| N6: SEQ ID NO: 1 with deletion of four amino acids at the carboxyl terminal (positions 15-18) (YRVRFLAKENVTQD) | 0.88 ± 0.19 | 1361.03 ± 248.72 | 144 ± 12,*** | 110 ± 5,**** | 157 ± 13,**** | 145 ± 29,**** |
| N20: SEQ ID NO: 1 with addition of one amino acid at the amino terminal and deletion of position 18 (RYRVRFLAKENVTQDAED) | 0.56 ± 0.18 | 1072.16 ± 390.44 | 244 ± 23,* | 273 ± 12,**** | 299 ± 35,**** | 242 ± 22,**** |
| N26: SEQ ID NO: 1 with substitution A15R, addition of one amino acid at the amino terminal and one at the carboxyl terminal (FYRVRFLAKENVTQDREDNC) | 0.57 ± 0.22 | 1163.91 ± 457.09 | 119 ± 17,*** | 231 ± 18,**** | 68 ± 19,**** | 371 ± 27,*** |
| N38: SEQ ID NO: 1 with one amino acid added at each terminal and PEG modification at the carboxyl terminal (FYRVRFLAKENVTQDAEDNC-{PEG}; reading uncertain) | 0.71 ± 0.27 | 927.9 ± 205.31 | 116 ± 27,*** | 2.62 ± 21,**** | 380 ± 32,*** | 249 ± 42,**** |
| N39: SEQ ID NO: 1 with addition of two amino acids and PEG modification at the carboxyl terminal (YRVRFLAKENVTQDAEDNTC-{PEG}; reading uncertain) | 0.98 ± 0.3 | 918.84 ± 288.77 | 262 ± 13,* | 278 ± 16,**** | 261 ± 25,**** | 88 ± 25,**** |
| N37: SEQ ID NO: 1 with addition of two amino acids to the carboxyl terminal and PEG modification at the amino terminal ({PEG}-YRVRFLAKENVTQDAEDNCT; reading uncertain) | 0.89 ± 0.39 | 915.97 ± 199.07 | 113 ± 11,*** | 359 ± 34,*** | 84 ± 7,**** | 233 ± 13,**** |
| N22: SEQ ID NO: 1 with substitution A7R, deletion of three amino acids at the amino terminal and of positions 15-18 (RFLRKENVTQD) | 0.89 ± 0.19 | 1288.08 ± 577.81 | 200 ± 18,*** | 220 ± 65,**** | 42 ± 17,**** | 430 ± 51,** |
